Laboratory results from paper PMC6930659, “Antiprotozoal Activity of Turkish Origanum onites Essential Oil and Its Components” (Molecules, 2019).
Values after ≈ are worked out from the molar mass of the structure shown.

tested on: T. b. brucei; test: not given; set-up: method as in PMID 29778466; details: blood stream trypomastigotes cultures; AnTart 1 strain, wild type; cited from earlier work

| Compound | IC50 T. b. brucei |
| --- | --- |
| CC1=CCC2CC1C2(C)C (stereo not drawn) [α-Pinene] | 2.9 µg/mL (≈ 21.3 µM) |

tested on: L. donovani (strain MHOM/ET/67/L82) amastigotes; test: In vitro assay for Leishmania donovani axenic amastigotes (resazurin); format: cell-based; details: axenic amastigotes, 72 h, means of two determinations ± deviation, read-out: IC50 Leishmania donovani
Description: Amastigotes of L. donovani (strain MHOM/ET/67/L82) were grown in axenic culture at 37 °C in SM medium at pH 5.4 supplemented with 10% heat-inactivated FBS under an atmosphere of 5% CO2. Culture medium (100 μL) with 10^5 amastigotes from axenic culture with or without a serial drug dilution was seeded in 96 well microtiter plates. Serial drug was prepared covering a range of dilutions from 90 to 0.123 μg/mL. After 72 h of incubation, the plates were inspected under an inverted microscope to assure growth of the controls and sterile conditions. Subsequently, 10 μL resazurin solution (12.5 mg resazurin dissolved in 100 mL double-distilled water) was added to each well and the plates were incubated for another 2 h. The plates were then read with a Spectramax Gemini XS microplate fluorometer (Molecular Devices Cooperation, Sunnyvale, CA, USA) using an excitation wavelength of 536 nm and an emission wavelength of 588 nm. Data were analyzed using the software Softmax Pro (Molecular Devices Cooperation, Sunnyvale, CA, USA). A decrease of fluorescence (=inhibition) was expressed as percentage of the fluorescence of control cultures and plotted against the drug concentrations. From the sigmoidal inhibition curves, the IC50 values were calculated. Miltefosine was used as a reference drug.

| Compound | IC50 |
| --- | --- |
| CCCCCCCCCCCCCCCCOP(=O)([O-])OCC[N+](C)(C)C [miltefosine, reference compound] | 0.2 µg/mL (≈ 0.491 µM) |
| COc1cc(C)ccc1C(C)C [Thymol Methyl Ether] | 86 ± 1.9 µg/mL (≈ 524 µM) |
| CC1=CC[C@@H](C(C)(C)O)CC1 [α-Terpineol] | 75.9 ± 4.7 µg/mL (≈ 492 µM) |
| CC1=CCC2CC1C2(C)C (stereo not drawn) [α-Pinene] | 81.9 ± 9 µg/mL (≈ 601 µM) |
| C=CC(=C)CCC=C(C)C [Myrcene] | 48.2 ± 12.7 µg/mL (≈ 354 µM) |
| COc1cc(C(C)C)ccc1C [Carvacrol Methyl Ether] | 17.5 ± 1.7 µg/mL (≈ 107 µM) |
| C=C[C@](C)(O)CCC=C(C)C [L-Linalool] | 86.3 ± 2.8 µg/mL (≈ 559 µM) |
| C=C1CC/C=C(\C)CC[C@@H]2[C@@H]1CC2(C)C [β-Caryophyllene] | 52.4 ± 17.4 µg/mL (≈ 256 µM) |
| CC1(C)C2CCC1(C)C(O)C2 (centres unmarked) [Borneol] | 52.1 ± 16.6 µg/mL (≈ 338 µM) |

tested on: T. cruzi amastigotes; test: not given; set-up: method as in doi:10.1080/10412905.2013.820669; details: cited from earlier work

| Compound | IC50 T. cruzi amastigotes |
| --- | --- |
| CC1=CCC2CC1C2(C)C (stereo not drawn) [α-Pinene] | 1.92 µg/mL (≈ 14.1 µM) |

tested on: T. cruzi Tulahuen strain C2C4; test: In vitro assay for Trypanosoma cruzi in L-6 cells (β-galactosidase/CPRG); format: cell-based; details: Trypanosoma cruzi, L6; Tulahuen C2C4 in L-6 cells, 96 h; highest concentration tested 90 μg/mL; means of two determinations ± deviation
Description: Rat skeletal myoblasts (L-6 cells) were seeded in 96 well microtiter plates (2000 cells/well) in 100 μL RPMI 1640 medium with 10% FBS and 2 mM L-glutamine for 24 h. After that, the medium was removed and replaced by 100 μL per well containing 5000 trypomastigote forms of T. cruzi Tulahuen strain C2C4, containing the β-galactosidase (Lac Z) gene. The medium was removed from the wells after 48 h, and replaced with 100 μL fresh medium with or without a serial drug dilution of seven 3-fold dilution steps covering a range from 90 to 0.123 μg/mL. After 96 h of incubation, the plates were inspected under an inverted microscope to assure growth of the controls and sterility, after which the substrate CPRG/Nonidet ([…]) was added to all wells. A color reaction developed within 2–6 h and could be read photometrically at 540 nm. Data were transferred into the graphic program Softmax Pro (Molecular Devices Cooperation, Sunnyvale, CA, USA) and the IC50 values were calculated from the sigmoidal dose response curves. Benznidazole was the reference drug.

| Compound | IC50 |
| --- | --- |
| COc1cc(C)ccc1C(C)C [Thymol Methyl Ether] | > 90 µg/mL |
| CC1=CC[C@@H](C(C)(C)O)CC1 [α-Terpineol] | 61 ± 2.1 µg/mL (≈ 395 µM) |
| CC1=CCC2CC1C2(C)C (stereo not drawn) [α-Pinene] | > 90 µg/mL |
| C=CC(=C)CCC=C(C)C [Myrcene] | > 90 µg/mL |
| COc1cc(C(C)C)ccc1C [Carvacrol Methyl Ether] | > 90 µg/mL |
| C=C[C@](C)(O)CCC=C(C)C [L-Linalool] | > 90 µg/mL |
| C=C1CC/C=C(\C)CC[C@@H]2[C@@H]1CC2(C)C [β-Caryophyllene] | 50.1 ± 12.5 µg/mL (≈ 245 µM) |
| CC1(C)C2CCC1(C)C(O)C2 (centres unmarked) [Borneol] | > 90 µg/mL |

tested on: P. falciparum K1 strain; test: In vitro assay for Plasmodium falciparum ([3H]-hypoxanthine incorporation); format: cell-based; details: K1 strain (chloroquine- and pyrimethamine-resistant), erythrocytic stages, means of two determinations ± deviation, read-out: IC50 Plasmodium falciparum
Description: Activity against the erythrocytic stages of P. falciparum was determined using an in vitro modified [^3H]-hypoxanthine incorporation assay, using the chloroquine- and pyrimethamine-resistant K1 strain [68]. Compounds were dissolved in DMSO at 10 mg/mL and further diluted in medium before added to parasite cultures incubated in RPMI 1640 medium without hypoxanthine, supplemented with HEPES (5.94 g/l), NaHCO3 (2.1 g/L), neomycin (100 U/mL), AlbumaxR (5 g/L), and washed human red cells A+ at 2.5% haematocrit (0.3% parasitaemia). Serial drug dilutions of seven 3-fold dilution steps covering a range from 90 to 0.123 μg/mL were prepared. The 96 well plates were incubated in a humidified atmosphere at 37 °C; 4% CO2, 3% O2, 93% N2. After 48 h 50 μL of ^3H-hypoxanthine (=0.5 μCi) was added to each well of the plate. The plates were incubated for a further 24 h under the same conditions. The plates were then harvested with a Betaplate™ cell harvester (Wallac, Zurich, Switzerland), and the red blood cells transferred onto a glass fiber filter then washed with distilled water. The dried filters were inserted into a plastic foil with 10 mL of scintillation fluid, and counted in a Betaplate™ liquid scintillation counter (Wallac, Zurich, Switzerland). […] IC50 values were calculated from the sigmoidal inhibition curves using Microsoft Excel. Chloroquine was used as positive control drug.

| Compound | IC50 |
| --- | --- |
| COc1cc(C)ccc1C(C)C [Thymol Methyl Ether] | > 20 µg/mL |
| CC1=CC[C@@H](C(C)(C)O)CC1 [α-Terpineol] | > 20 µg/mL |
| CC1=CCC2CC1C2(C)C (stereo not drawn) [α-Pinene] | 10.7 ± 1.2 µg/mL (≈ 78.5 µM) |
| C=CC(=C)CCC=C(C)C [Myrcene] | > 20 µg/mL |
| COc1cc(C(C)C)ccc1C [Carvacrol Methyl Ether] | > 20 µg/mL |
| C=C[C@](C)(O)CCC=C(C)C [L-Linalool] | > 20 µg/mL |
| C=C1CC/C=C(\C)CC[C@@H]2[C@@H]1CC2(C)C [β-Caryophyllene] | 12.8 µg/mL (≈ 62.6 µM) |
| CC1(C)C2CCC1(C)C(O)C2 (centres unmarked) [Borneol] | > 20 µg/mL |

tested on: T. cruzi epimastigotes; test: not given; set-up: method as in doi:10.1080/10412905.2013.820669; details: cited from earlier work

| Compound | IC50 T. cruzi epimastigotes |
| --- | --- |
| CC1=CCC2CC1C2(C)C (stereo not drawn) [α-Pinene] | 2.74 µg/mL (≈ 20.1 µM) |

tested on: Trypanosoma brucei rhodesiense STIB 900; test: In vitro assay for Trypanosoma brucei rhodesiense (resazurin); format: cell-based; details: Trypanosoma brucei, 72 h, STIB 900 blood stream forms, 72 h; means of two independent determinations ± deviation from the mean; read-out: IC50 Trypanosoma brucei rhodesiense
Description: Trypanosoma brucei rhodesiense STIB 900 strain, isolated in 1982 from a human patient in Tanzania and, after several mouse passages, cloned and adapted to axenic culture conditions, was used in this assay. Minimum essential medium (50 μL) supplemented with 25 mM HEPES, 1 g/L additional glucose, 1% MEM non-essential amino acids (100×), 0.2 mM 2-mercaptoethanol, 1 mM Na-pyruvate, and 15% heat inactivated horse serum was added to each well of a 96 well microtiter plate. Serial drug dilutions of seven 3-fold dilution steps covering a range from 90 to 0.123 μg/mL were prepared, and then 4 × 10^4 blood stream forms of T. b. rhodesiense STIB 900 in 50 μL were added to each well and the plate was incubated at 37 °C under a 5% CO2 atmosphere for 72 h. Resazurin solution (resazurin, 12.5 mg in 100 mL double-distilled water) (10 μL) was then added to each well and incubated for a further 2–4 h. At the end of the assay, the plates were read with a Spectramax Gemini XS microplate fluorometer (Molecular Devices Cooperation, Sunnyvale, CA, USA) using an excitation wavelength of 536 nm and an emission wavelength of 588 nm. Data were analyzed using the microplate reader software Softmax Pro (Molecular Devices Cooperation, Sunnyvale, CA, USA). Melarsoprol was used as standard drug.

| Compound | IC50 |
| --- | --- |
| COc1cc(C)ccc1C(C)C [Thymol Methyl Ether] | 4.1 ± 1.97 µg/mL (≈ 25 µM) |
| CC1=CC[C@@H](C(C)(C)O)CC1 [α-Terpineol] | 0.56 ± 0.4 µg/mL (≈ 3.63 µM) |
| CC1=CCC2CC1C2(C)C (stereo not drawn) [α-Pinene] | 0.42 ± 0.24 µg/mL (≈ 3.08 µM) |
| C=CC(=C)CCC=C(C)C [Myrcene] | 22 ± 14.8 µg/mL (≈ 161 µM) |
| COc1cc(C(C)C)ccc1C [Carvacrol Methyl Ether] | 17 ± 22 µg/mL (≈ 104 µM) |
| C=C[C@](C)(O)CCC=C(C)C [L-Linalool] | 3.6 ± 2.5 µg/mL (≈ 23.3 µM) |
| C=C1CC/C=C(\C)CC[C@@H]2[C@@H]1CC2(C)C [β-Caryophyllene] | 28.9 ± 11.8 µg/mL (≈ 141 µM) |
| CC1(C)C2CCC1(C)C(O)C2 (centres unmarked) [Borneol] | 24.3 ± 11.8 µg/mL (≈ 158 µM) |

tested on: not listed separately; test: In vitro assay for cytotoxicity on mammalian cells (resazurin); format: cell-based, rat; details: L6 cells (rat skeletal myoblasts); rat skeletal myoblasts, 72 h; means of two determinations ± deviation; read-out: IC50 Cytotoxicity L6 cells
Description: Assays were performed in 96 well microtiter plates (4 × 10^4 L6 cells/well), each well containing 100 μL of RPMI 1640 medium supplemented with 1% L-glutamine (200 mM) and 10% FBS. L6 cells are a primary cell line derived from rat skeletal myoblasts. Serial drug dilutions of seven 3-fold dilution steps covering a range from 90 to 0.123 μg/mL were prepared. After 72 h of incubation, the plates were inspected under an inverted microscope to assure growth of the controls and sterile conditions. Resazurin solution (10 μL) (12.5 mg resazurin in 100 mL double-distilled water) was then added to each well and the plates incubated for another 2 h. The plates were then read with a Spectramax Gemini XS microplate fluorometer (Molecular Devices Cooperation, Sunnyvale, CA, USA) using an excitation wavelength of 536 nm and an emission wavelength of 588 nm. Data were analyzed using the microplate reader software Softmax Pro (Molecular Devices Cooperation, Sunnyvale, CA, USA). From the sigmoidal inhibition curves, the IC50 values were calculated. Podophyllotoxin was the positive control.

| Compound | IC50 at 72 h |
| --- | --- |
| CC1=CCC2CC1C2(C)C (stereo not drawn) [α-Pinene] | 87.8 ± 3 µg/mL (≈ 644 µM) |
| C=CC(=C)CCC=C(C)C [Myrcene] | > 90 µg/mL |
| C=C1CC/C=C(\C)CC[C@@H]2[C@@H]1CC2(C)C [β-Caryophyllene] | 62.2 ± 7 µg/mL (≈ 304 µM) |
| CC1(C)C2CCC1(C)C(O)C2 (centres unmarked) [Borneol] | > 90 µg/mL |

same assay, conditions: rat

| Compound | IC50 at 72 h |
| --- | --- |
| COc1cc(C)ccc1C(C)C [Thymol Methyl Ether] | > 90 µg/mL |
| COc1cc(C(C)C)ccc1C [Carvacrol Methyl Ether] | > 90 µg/mL |
| C=C[C@](C)(O)CCC=C(C)C [L-Linalool] | > 90 µg/mL |

same assay, conditions: rat skeletal myoblasts, 72 h; means of two determinations ± deviation; read-out: IC50 Cytotoxicity L6 cells

| Compound | IC50 |
| --- | --- |
| CC1=CC[C@@H](C(C)(C)O)CC1 [α-Terpineol] | 32.3 ± 0.1 µg/mL (≈ 209 µM) |
